Drawing on the OPERA property sets (Mansouri et al. 2018), this text covers logP for 104 compounds.

For orientation: logP means the decadic logarithm of the partition coefficient of the neutral form, usually between octanol and water.

The compound `Nc1ccc(C(=O)O)c(I)c1` registered a logP of 1.65.
With `CS(=O)(=O)Nc1ccc(Cl)cc1` the figure was 1.85; with `COc1cccc(COC(C)=O)c1`, 2.02; with `O=C(O)C(c1ccc(-c2ccccc2)cc1)C(O)c1ccccc1F` (centres undefined), 3.77.
The compound `CCOP(=S)(OCC)SC(CCl)N1C(=O)c2ccccc2C1=O` (centres undefined) had a logP of 4.69.
With `COC(=O)c1cc(Cl)ccc1N` the figure was 3.3; with `CCC(C)c1ccc(OCC(=O)O)cc1` (centres undefined), 3.12; with `CCOP(=O)(OCC)Oc1ccc(SC)cc1Cl`, 3.05.
Turning to `NC(=O)c1ccccc1N`, the logP was 0.35.
In turn, `CC(=O)c1ccc(Br)cc1` showed a logP of 2.43.
`Nc1c2ccccc2nc2ccccc12` yielded a lipophilicity (logP) of 2.74.
The compound `Cc1cc2occ(C)c2c2oc(=O)ccc12` had a logP of 3.02.
On to `CCSCC`, for which the logP amounted to 1.95.
`Cc1ccc(C=NO)cc1` came in with a logP of 2.4.
The result for `N#CCCOc1ccccc1` reads 1.61; that for `CC(C)CN`, 0.73; that for `O=C(O)Cc1cccc(C(F)(F)F)c1`, 2.62.
With `CC(Cl)C(=O)NC(CO)C(O)c1ccc([N+](=O)[O-])cc1` (centres undefined) the figure was 0.98; with `NCCCCCC(=O)O`, -2.95.
As for `c1ccc(COCc2ccccc2)cc1`, the logP was 3.31.
With `O=[N+]([O-])c1cccc(F)c1`, the logP is 1.9.
With `COc1ccc(COC(=O)N(C)C)cc1` the figure was 2.2.
With `CNC(=O)Nc1ccc(OC)c(Cl)c1` the figure was 1.76; with `COP(=O)(NC(C)=O)SC` (centres undefined), -0.85; with `COc1ccc(NC=O)cc1`, 1.03.
Compound `N#Cc1cnc2ccccc2c1` yielded a logP of 1.57.
`COC(OC)(OC)c1ccccc1` displayed a logP of 2.27.
With `CCC1CCCCN1C(=O)COC(=O)c1ccccc1` (centres undefined) the figure was 2.62; with `CC[C@H](C)C(=O)O[C@H]1C[C@H](O)C=C2C=C[C@H](C)[C@H](CC[C@@H]3C[C@@H](O)CC(=O)O3)[C@H]21`, 2.42.
In the case of `Clc1cccc2nccnc12`, the logP came out at 1.75.
The compound `Cc1cccc(OCC(O)CNC(C)C)c1` (centres undefined) had a logP of 1.93.
The result for `COc1ccc2nc(N)[nH]c2c1` reads 0.57; that for `COc1cccc(Cl)c1`, 2.98.
For the compound `Cn1cc(C(=O)O)c2ccccc21`, the logP amounted to 2.
With `O=C1CCC(N2C(=O)c3ccccc3C2=O)C(=O)N1` (centres undefined), the logP worked out at 0.33.
With `CN(C)C(=N)N(C)C`, the logP was determined as 0.41.
Regarding `CCC(C)c1cccc(C(C)CC)c1O` (centres undefined), the logP stood at 4.36.
Turning to `ClC(Cl)(Cl)C(c1ccccc1)c1ccccc1`, the logP was found to be 4.87.
Compound `CN(C)c1cccc2c(S(N)(=O)=O)cccc12` had a logP of 2.01.
Take `Brc1c(Br)c(Br)c(Br)c(Br)c1Br`: the logP was determined as 6.07.
As for `CC(=O)Oc1cccc(Cl)c1`, the logP came out at 2.32.
The compound `CCCC(C)O` (centres undefined) came in with a log partition coefficient (logP) of 1.19.
Take `CCOC(=O)N(C)C`: the lipophilicity (logP) stood at 0.89.
The result for `O=C(NC(CO)C(O)c1ccc(I)cc1)C(Cl)Cl` (centres undefined) reads 2.22; that for `O=c1[nH]cc(F)c(=O)[nH]1`, -0.89; that for `Nc1cccc([N+](=O)[O-])c1`, 1.37.
The result for `O=[N+]([O-])c1ccc2cccccc1-2` reads 2.59.
With `O=C(O)c1ccc(I)cc1` the figure was 3.02; with `c1ccn2cccc2c1`, 2.49.
Consider `c1ccc2c(c1)CCCC2`, for which the logP came out at 3.49.
Regarding `CCCNC(=O)NO`, the logP is -0.22.
The result for `CC[N+](=O)[O-]` reads 0.18; that for `NS(=O)(=O)c1ccc(Br)cc1`, 1.36; that for `Clc1c(Cl)c(Cl)c2n[nH]nc2c1Cl`, 4.17.
The result for `S=C1CCCCCCN1` reads 1.
The result for `COc1ccc(N=NN(C)C)cc1` reads 2.99; that for `CC(=O)C=Cc1ccco1`, 1.35.
In the case of `c1cc2c3c(cccc3c1)CC2`, the logP was determined as 3.92.
The result for `COc1ccc(CCN)cc1OC` reads 0.77; that for `OCc1ccc(Cl)cc1`, 1.96; that for `O=S(=O)(Nc1ccccc1)C(F)(F)F`, 3.05.
In turn, `CCCCSC#N` returned a logP of 2.03.
The result for `CCCCNC1=CC(=O)c2ccccc2C1=O` reads 3.11; that for `Nc1nnco1`, -1.44; that for `COc1cccc(C(=O)NN)c1`, 0.4.
`Cc1cccc(Cl)c1Nc1ccccc1CC(=O)O` yielded a logP of 4.37.
The result for `Cc1[nH]ccc(=O)c1O` reads -0.49; that for `Nc1nc(N)c2ccccc2n1`, 1; that for `Clc1ccc(-c2ccccc2Cl)c(Cl)c1`, 5.76.
With `CC(C)N1CCN=C1CN1CCCCSc2ccc(Cl)cc21` the figure was 5.15; with `Brc1ccc(Br)cc1`, 3.79; with `CNc1c(Cl)cccc1Cl`, 2.91.
The compound `Cc1cc(O)ccc1Cl` had a logP of 3.1.
With `O=C(O)c1cccc(I)c1` the figure was 3.13; with `O=[N+]([O-])c1cccc(Cl)c1Cl`, 3.05; with `Clc1cccc(Cl)n1`, 2.15.
The result for `CN(C)C(=O)Nc1ccc(C(C)(C)C)cc1` reads 3.1.
The result for `COC(=O)c1ccsc1` reads 1.76; that for `CCNC(=O)c1cccnc1`, 0.31.
Compound `COP(=S)(OC)Oc1cc(Cl)c(Br)cc1Cl` had a logP of 5.21.
In the case of `COP(=S)(OC)Oc1ccc(Sc2ccc(OP(=S)(OC)OC)cc2)cc1`, the logP stood at 5.96.
The result for `OCCc1ccncc1` reads 0.1; that for `Oc1ccc(Cl)c(O)c1`, 1.8.
On to `CCN(CC)CCNC(=O)c1cc(Cl)ccc1OC`, for which the logP came out at 3.11.
The result for `C=COCC` reads 1.04; that for `CC(=O)Oc1ccc(N)cc1`, 0.45; that for `CC(C)(C)c1cccc(C(C)(C)C)c1O`, 4.92.
With `O=C1CN=C(c2ccccc2Cl)c2cc([N+](=O)[O-])ccc2N1` the figure was 2.41; with `CNC(=O)Oc1cccc2ccccc12`, 2.36.
With `Cc1ccnc2c(O)cccc12`, the logP was 2.41.
With `CC(C)(C)C` the figure was 3.11.
Compound `CNC1CC2CCC1c1ccccc12` (centres undefined) returned a logP of 2.68.
For the compound `O=C1CCCCN1`, the logP is -0.46.
`Cc1ccccc1Cl`: the logP worked out at 3.42.
With `CS(=O)(=O)ON1C(=O)c2ccc([N+](=O)[O-])cc2C1=O` the figure was 1.71.
With `Cc1ccccc1C(=O)O` the figure was 2.46; with `O=[N+]([O-])c1ccccc1CO`, 1.24; with `Clc1cc(Cl)c(Cl)c(Cl)c1Cl`, 5.17.
With `O=C(O)c1ccccc1[N+](=O)[O-]` the figure was 1.46; with `O=c1cc[nH]c2ccccc12`, 0.58.
The compound `CCC(C)(C)C(=O)OC1CC(C)C=C2C=CC(C)C(CCC(O)CC(O)CC(=O)O)C21` (centres undefined) returned a logP of 4.47.
In turn, `CC(=O)c1ccco1` came in with a logP of 0.52.
As for `COC(=O)Cc1ccsc1`, the logP came to 1.46.
The result for `CCCCCCOc1cccc(NC(=O)OCCN2CCCCC2)c1` reads 5.51.
